Here are results for 19 compounds from ChEMBL document CHEMBL1129317, “Novel selective and partial agonists of 5-HT3 receptors. Part 1. Synthesis and biological evaluation of piperazinopyrrolothienopyrazines” (J Med Chem, 1996).

The structures appear in SMILES notation. A value given as a limit tells only on which side of the number the result lay.

The target of experiment [1] is 5-hydroxytryptamine receptor 1B (Rattus norvegicus, UniProt P28564). Kind of experiment: Binding affinity for 5-hydroxytryptamine 1B receptor.
5-hydroxytryptamine receptor 1B, sequence (P28564 whole entry): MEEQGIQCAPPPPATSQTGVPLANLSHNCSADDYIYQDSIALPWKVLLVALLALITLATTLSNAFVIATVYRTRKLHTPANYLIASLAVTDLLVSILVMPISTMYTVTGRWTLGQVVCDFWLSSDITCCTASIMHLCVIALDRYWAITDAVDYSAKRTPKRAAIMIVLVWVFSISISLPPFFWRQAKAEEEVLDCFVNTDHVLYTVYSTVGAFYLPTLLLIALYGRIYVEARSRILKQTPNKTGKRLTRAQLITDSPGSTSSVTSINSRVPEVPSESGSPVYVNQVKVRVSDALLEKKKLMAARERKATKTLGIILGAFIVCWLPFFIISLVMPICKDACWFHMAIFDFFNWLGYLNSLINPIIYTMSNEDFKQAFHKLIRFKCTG
The target in experiment [2] is T1, Serotonin 3 (5-HT3) receptor (Rattus norvegicus, UniProt P35563+Q9JJ16).
T1 sequence (P35563 whole entry): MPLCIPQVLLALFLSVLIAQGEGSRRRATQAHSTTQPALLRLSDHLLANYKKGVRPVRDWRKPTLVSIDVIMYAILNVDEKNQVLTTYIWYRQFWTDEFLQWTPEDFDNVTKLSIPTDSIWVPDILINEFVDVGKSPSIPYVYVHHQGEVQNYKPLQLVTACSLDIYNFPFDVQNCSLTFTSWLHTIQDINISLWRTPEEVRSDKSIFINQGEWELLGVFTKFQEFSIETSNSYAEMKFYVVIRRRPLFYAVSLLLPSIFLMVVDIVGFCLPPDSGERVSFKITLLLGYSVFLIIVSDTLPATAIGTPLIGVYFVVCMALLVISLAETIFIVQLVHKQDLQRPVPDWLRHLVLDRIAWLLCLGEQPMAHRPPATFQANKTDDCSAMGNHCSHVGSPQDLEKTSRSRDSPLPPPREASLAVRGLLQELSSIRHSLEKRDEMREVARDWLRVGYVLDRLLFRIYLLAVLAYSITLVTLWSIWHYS
T1 sequence (Q9JJ16 whole entry): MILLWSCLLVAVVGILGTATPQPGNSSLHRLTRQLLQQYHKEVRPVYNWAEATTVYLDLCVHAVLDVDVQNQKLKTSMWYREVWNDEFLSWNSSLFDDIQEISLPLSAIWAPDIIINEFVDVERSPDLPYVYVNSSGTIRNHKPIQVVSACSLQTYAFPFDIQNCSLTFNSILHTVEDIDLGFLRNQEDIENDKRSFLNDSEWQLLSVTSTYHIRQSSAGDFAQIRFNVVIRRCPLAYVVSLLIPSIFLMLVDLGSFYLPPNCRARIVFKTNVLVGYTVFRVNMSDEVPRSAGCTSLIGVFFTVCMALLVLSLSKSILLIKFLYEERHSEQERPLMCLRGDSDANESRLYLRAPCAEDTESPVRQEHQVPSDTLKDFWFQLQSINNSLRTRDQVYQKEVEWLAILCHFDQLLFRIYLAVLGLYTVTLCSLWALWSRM
Kind of experiment: Binding affinity towards 5-hydroxytryptamine 3 receptor. Type of experiment: protein-complex assay.

Another experiment concerns NG108-15. Kind of experiment: In vitro effective concentration against [14C]guanidinium uptake into NG 108-15 cells. Type of experiment: functional, cell-based. The following applies: Murinae.
Experiment [3] concerns the target 5-hydroxytryptamine receptor 2A (Bos taurus, UniProt Q75Z89). Briefly: Binding affinity towards 5-hydroxytryptamine 2A receptor.
Experiment [4] addresses T2, 5-hydroxytryptamine receptor 1A (Homo sapiens, UniProt P08908).
T2 sequence (P08908 whole entry): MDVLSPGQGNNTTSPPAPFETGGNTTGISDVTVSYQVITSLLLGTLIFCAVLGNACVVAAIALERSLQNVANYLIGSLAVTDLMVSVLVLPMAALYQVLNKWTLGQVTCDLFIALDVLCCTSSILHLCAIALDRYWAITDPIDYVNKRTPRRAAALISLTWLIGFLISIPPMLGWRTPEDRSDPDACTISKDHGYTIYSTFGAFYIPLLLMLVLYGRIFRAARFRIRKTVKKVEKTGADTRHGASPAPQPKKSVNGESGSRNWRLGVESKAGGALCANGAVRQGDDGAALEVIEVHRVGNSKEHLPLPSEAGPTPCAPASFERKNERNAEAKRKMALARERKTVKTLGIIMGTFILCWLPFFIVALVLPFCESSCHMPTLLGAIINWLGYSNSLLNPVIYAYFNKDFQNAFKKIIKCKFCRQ
Briefly: Binding affinity for 5-hydroxytryptamine 1A receptor.

The target of experiment [5] is T3, Serotonin 3 (5-HT3) receptor (Rattus norvegicus) (UniProt P35563+Q9JJ16). Kind of experiment: Antagonistic activity of compound towards 5-hydroxytryptamine 3 receptor in Von Bezold-Jarisch reflex in rats at 60(ug/kg), evaluated as percent inhibition of bradycardia. Type of experiment: functional.
Experiment [6] addresses T3, Serotonin 3 (5-HT3) receptor (Rattus norvegicus). Briefly: 5-Hydroxy tryptamine 3 receptor showing agonist activity (in vivo) in Von Bezold-Jarisch Reflex in rats at 120 (ug/kg), evaluated as change in heart rate. Type of experiment: functional, organism-based.
Experiment [7] has as its target 5-hydroxytryptamine receptor 1D (Sus scrofa, UniProt P79400). Kind of experiment: Binding affinity for 5-hydroxytryptamine 1D receptor.
Experiment [8] addresses T3, Serotonin 3 (5-HT3) receptor (Rattus norvegicus). Kind of experiment: Agonistic activity of compound towards 5-hydroxytryptamine 3 receptor in Von Bezold-Jarisch Reflex in rats at 60 (ug/kg), evaluated as change in heart rate. Type of experiment: functional.
Experiment [9] addresses T4, 5-hydroxytryptamine receptor 2C (Homo sapiens, UniProt P28335).
T4 sequence (P28335 whole entry): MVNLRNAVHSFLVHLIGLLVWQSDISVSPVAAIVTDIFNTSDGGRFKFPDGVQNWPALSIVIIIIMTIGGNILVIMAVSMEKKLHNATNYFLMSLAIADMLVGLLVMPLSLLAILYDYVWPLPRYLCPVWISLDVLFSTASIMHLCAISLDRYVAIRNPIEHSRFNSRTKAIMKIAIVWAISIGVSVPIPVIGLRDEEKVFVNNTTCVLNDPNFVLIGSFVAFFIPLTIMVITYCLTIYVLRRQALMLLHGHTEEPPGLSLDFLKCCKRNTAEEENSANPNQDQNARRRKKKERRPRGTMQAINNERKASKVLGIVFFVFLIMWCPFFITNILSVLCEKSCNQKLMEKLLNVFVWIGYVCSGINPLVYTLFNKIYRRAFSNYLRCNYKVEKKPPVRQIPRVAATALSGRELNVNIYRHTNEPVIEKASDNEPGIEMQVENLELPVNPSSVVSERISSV
Kind of experiment: Binding affinity towards 5-hydroxytryptamine 2C receptor.

For experiment [10], the target named is T3, Serotonin 3 (5-HT3) receptor (Rattus norvegicus). Kind of experiment: Antagonistic activity of compound towards 5-hydroxytryptamine 3 receptor in Von Bezold-Jarisch Reflex in rats at 100(ug/kg), evaluated as percent inhibition of bradycardia. Type of experiment: functional.
Experiment [11] has the same target. Kind of experiment: Agonistic activity of compound towards 5-hydroxytryptamine 3 receptor in Von Bezold-Jarisch Reflex in rats at 100 (ug/kg), evaluated as change in heart rate. Type of experiment: functional.
For experiment [12] the target is unchanged. Kind of experiment: Antagonistic activity of compound towards 5-hydroxytryptamine 3 receptor in Von Bezold-Jarisch Reflex in rats at 60 (ug/kg), evaluated as percent inhibition of bradycardia. Type of experiment: functional.

5-hydroxytryptamine receptor 2A, sequence (Q75Z89 whole entry): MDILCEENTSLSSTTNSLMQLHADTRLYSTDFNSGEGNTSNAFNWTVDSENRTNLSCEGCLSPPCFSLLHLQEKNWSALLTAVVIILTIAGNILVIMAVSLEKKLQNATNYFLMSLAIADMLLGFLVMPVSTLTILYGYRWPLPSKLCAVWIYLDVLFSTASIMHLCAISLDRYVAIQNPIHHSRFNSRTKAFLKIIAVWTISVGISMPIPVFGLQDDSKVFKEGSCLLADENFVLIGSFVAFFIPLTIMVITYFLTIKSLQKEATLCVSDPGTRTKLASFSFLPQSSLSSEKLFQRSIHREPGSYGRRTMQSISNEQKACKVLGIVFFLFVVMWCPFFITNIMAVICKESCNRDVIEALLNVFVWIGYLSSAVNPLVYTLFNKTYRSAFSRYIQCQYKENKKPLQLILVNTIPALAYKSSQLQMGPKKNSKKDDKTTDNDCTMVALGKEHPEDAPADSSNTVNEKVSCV
5-hydroxytryptamine receptor 1D, sequence (P79400 whole entry): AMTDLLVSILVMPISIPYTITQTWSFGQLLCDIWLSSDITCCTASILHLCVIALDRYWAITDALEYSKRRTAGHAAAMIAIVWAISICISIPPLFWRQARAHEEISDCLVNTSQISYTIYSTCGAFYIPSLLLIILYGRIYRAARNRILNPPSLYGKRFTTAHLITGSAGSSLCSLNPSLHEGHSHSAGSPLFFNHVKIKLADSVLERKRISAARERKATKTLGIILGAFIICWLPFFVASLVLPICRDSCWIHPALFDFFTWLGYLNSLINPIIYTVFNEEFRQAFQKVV

With `c1cc2c(N3CCNCC3)nc3ccsc3n2c1`, the IC50 in [1] is 0.0138 µM; in experiment [2], 0.012 µM; in experiment [3], 2.63 µM; in experiment [4], 0.0589 µM; in experiment [7], 0.603 µM; in [9], 0.0347 µM. For the same compound, the EC50 in the experiment on NG108-15 was determined as 0.08 µM. For the same compound, the Change in experiment [5] amounted to 68%; in [6], 0%; in [8], 35%.
Turning to `c1ccc(CN2CCN(c3nc4sccc4n4cccc34)CC2)cc1`, the IC50 in experiment [1] is 91.2 µM; in [2], 0.00457 µM; in [3], 19.5 µM; in [4] it was 5.89 µM; in experiment [7] it was 93.3 µM; in experiment [9] it was 3.72 µM. This compound had an EC50 in the experiment with NG108-15 of 0.03 µM. In addition, the Change in [10] came to 67%; in [11], 48%.
As to `Clc1ccc(CN2CCN(c3nc4sccc4n4cccc34)CC2)c(Cl)c1`, the IC50 in [1] was 63.1 µM; in [2] it was 4.17 µM; in [3], 479 µM; in experiment [4] it was 31.6 µM; in experiment [7], 25.1 µM; in experiment [9], 19.1 µM.
With `c1ccc(CN2CCN(c3nc4scc(-c5ccccc5)c4n4cccc34)CC2)cc1`, the IC50 was 24 µM in experiment [1]; 6.76 µM in experiment [2]; 63.1 µM in experiment [3]; 25.7 µM in experiment [4]; 30.9 µM in experiment [7]; 2.63 µM in experiment [9].
In the case of `C[N+]1(Cc2ccccc2)CCN(c2nc3ccsc3n3cccc23)CC1`, the IC50 in experiment [1] is 40.7 µM; in experiment [2] it was 0.126 µM; in [3] it was 17.4 µM; in experiment [4], 7.76 µM; in experiment [7], > 100 µM; in experiment [9] it was 15.5 µM.
`Cc1sc2c(nc(N3CCN(Cc4ccccc4)CC3)c3cccn32)c1C`: the IC50 in experiment [1] is > 100 µM; in [2], 3.63 µM; in experiment [3], 174 µM; in [4] it was 126 µM; in experiment [7], 525 µM; in [9] it was 155 µM.
Regarding `FC(F)(F)c1cccc(N2CCN(c3nc4scc(-c5ccccc5)c4n4cccc34)CC2)c1`, the half-maximal inhibitory concentration (IC50) in [1] was 19.1 µM; in experiment [2], 2.95 µM; in [3], 87.1 µM; in experiment [4], 17.8 µM; in [7], 35.5 µM; in experiment [9] it was 1.07 µM.
In the case of `Fc1ccc(N2CCN(c3nc4ccsc4n4cccc34)CC2)cc1`, the IC50 in experiment [1] was 70.8 µM; in experiment [2], 97.7 µM; in [3] it was 447 µM; in experiment [4] it was 43.7 µM; in experiment [7] it was 275 µM; in experiment [9], 72.4 µM.
As to `Fc1ccc(CN2CCN(c3nc4sccc4n4cccc34)CC2)cc1`, the IC50 in [1] was 1580 µM; in experiment [2], 0.00117 µM; in [3], 38 µM; in [4], 14.5 µM; in [7], > 100 µM. Moreover, the EC50 in the experiment with NG108-15 stood at 0.005 µM. Further, the Change is 25% in experiment [11], 34% in [12] and 0% in [8].
Consider `C(=C\c1ccccc1)/CN1CCN(c2nc3ccsc3n3cccc23)CC1`, for which the 50% inhibitory concentration (IC50) was 0.646 µM in experiment [1]; 0.2 µM in experiment [2]; 0.851 µM in experiment [3]; 0.0832 µM in experiment [4]; 105 µM in experiment [7]; 0.708 µM in experiment [9].
Regarding `FC(F)(F)c1cccc(N2CCN(c3nc4sccc4n4cccc34)CC2)c1`, the IC50 in [1] is 7.41 µM; in [2] it was 74.1 µM; in experiment [3], 832 µM; in experiment [4], 12.6 µM; in experiment [7] it was 57.5 µM; in experiment [9] it was 5.89 µM.
`O=C(CN1CCN(c2nc3ccsc3n3cccc23)CC1)N1CCCC1`: the IC50 in [1] was > 100 µM; in [2] it was 1.48 µM; in experiment [3], 14.5 µM; in experiment [4], 0.407 µM; in experiment [7], 251 µM; in [9] it was 8.32 µM.
Turning to `c1cc2c(N3CCOCC3)nc3ccsc3n2c1`, the IC50 was > 100 µM in experiment [1]; 20.9 µM in experiment [2]; 39.8 µM in experiment [3]; 32.4 µM in [4]; 93.3 µM in experiment [7]; 41.7 µM in experiment [9].
`c1ccc(CN2CCN(c3nc4sc(-c5ccccc5)cc4n4cccc34)CC2)cc1`: the IC50 in experiment [1] was > 100 µM; in experiment [2], 39.8 µM; in experiment [3] it was > 100 µM; in [4], 389 µM; in [7] it was 537 µM; in experiment [9], 1000 µM.
Regarding `FC(F)(F)c1cccc(N2CCN(c3nc4sc(-c5ccccc5)cc4n4cccc34)CC2)c1`, the IC50 was > 100 µM in experiment [1]; 1740 µM in experiment [2]; > 100 µM in experiment [3]; > 100 µM in [4]; > 100 µM in experiment [7]; 23.4 µM in experiment [9].
`Fc1ccc(CN2CCN(Cc3nc4ccsc4n4cccc34)CC2)cc1`: the IC50 in [1] is 19.5 µM; in [2], 18.2 µM; in experiment [3], 13.8 µM; in [4], 7.76 µM; in experiment [7], 38 µM; in experiment [9], 14.1 µM.
On to `c1cc2c(N3CCCCC3)nc3ccsc3n2c1`, for which the IC50 in experiment [1] is > 100 µM; in [2] it was 72.4 µM; in experiment [3], > 100 µM; in [4] it was 64.6 µM; in [7], > 100 µM; in experiment [9] it was 57.5 µM.
On to `FC(F)(F)c1cccc(N2CCN(c3nc4cc(-c5ccccc5)sc4n4cccc34)CC2)c1`, for which the IC50 in experiment [1] was 1380 µM; in [2] it was > 100 µM; in [3], > 100 µM; in [4], > 100 µM; in [7], > 100 µM; in experiment [9], 214 µM.
As for `c1ccc(CN2CCN(c3nc4cc(-c5ccccc5)sc4n4cccc34)CC2)cc1`, the IC50 in experiment [1] is > 100 µM; in experiment [2] it was 589 µM; in experiment [3], 339 µM; in [4], > 100 µM; in [7], > 100 µM; in experiment [9], 468 µM.
